In patent publication US10221165B2, “Flavone based EGFR inhibitors and process for preparation thereof” (Council of Scientific and Industrial Research, priority 2015, dated 2019):

How the values were obtained:
[1] = tested on: U87MG Cell line (glioblastoma cell line); assay: Cell proliferation assay (MTT), in-vitro anticancer activity against U87MG cell line; assay type: cell-based; conditions: Homo sapiens, U-87 MG, 72 h
Method: (§1) Each cell line was plated in 96-well microtiter plates (10,000 cells per well), and serial dilutions of indicated compounds were added. At the end of the incubation period (72 h at 37° C.), cell viability was determined by a tetrazolium dye, MTT (3-(4,5-dimethylthiazol-2-yl)-2,5-diphenyl tetrazolium bromide) (Promega, USA). The formazan crystals were dissolved in DMSO, and the absorbance at 600 nm was recorded using an ELISA plate reader. IC50 values were calculated using nonlinear regression and defined as the concentration needed for a 50% reduction in absorbance of treated versus untreated control cells.
In-Vitro Anticancer Activity Against U87MG Cell Line (Glioblastoma Cell Line)

[2] = tested on: A549 Cell line (Lung Cancer Cell line); assay: Cell proliferation assay (MTT), in-vitro anticancer activity against A549 cell line; assay type: cell-based; conditions: Homo sapiens, 72 h; for viability at 0.01 µM: A549, 0.01 μM; for viability at 0.1 µM: A549, 0.1 μM; for viability at 2.5 µM: A549, 2.5 μM; for viability at 5 µM: A549, 5 μM; for viability at 10 µM: A549, 10 μM
Method: as §1
In-Vitro Anticancer Activity Against A549 Cell Line (Lung Cancer Cell Line) (Adenocarcinomic Human Alveolar Basal Epithelial Cells)

Log P (Table 4) = assay type: physicochemical; conditions: method not stated

| melting point [°C] | logP (Log P (Table 4)) | Structure (SMILES) | viability at 0.01 µM [1] [%] | viability at 0.1 µM [1] [%] | viability at 2.5 µM [1] [%] | viability at 5 µM [1] [%] | viability at 10 µM [1] [%] | viability at 0.01 µM [2] [%] | viability at 0.1 µM [2] [%] | viability at 2.5 µM [2] [%] | viability at 5 µM [2] [%] | viability at 10 µM [2] [%] |
| --- | --- | --- | --- | --- | --- | --- | --- | --- | --- | --- | --- | --- |
| 232 to 234 | 3.2 | Nc1nc(Nc2ccccc2)sc1-c1cc(=O)c2ccccc2o1 [Compound S1-M1, 2-(4-amino-2-(phenylamino)thiazol-5-yl)-4H-chromen-4-one] | 88 | 79.5 | 70.5 | 62.5 | 51.5 | 100 | 90.5 | 82.5 | 75.5 | 60.5 |
| 244 to 246 | 1.9 | Cc1ccc(Nc2nc(N)c(-c3cc(=O)c4ccc(O)cc4o3)s2)cc1 [Compound S1-M2, 2-(2-(p-tolylamino)-4-aminothiazol-5-yl)-7-hydroxy-4H-chromen-4-one] | 41.1 | 34.4 | 28.1 | 19.6 | 14.9 | 56.1 | 41.1 | 31.1 | 24.1 | 20.9 |
| 268 to 270 | 2.01 | Cc1ccccc1Nc1nc(N)c(-c2cc(=O)c3ccc(O)cc3o2)s1 [Compound S1-M3, 2-(2-(o-tolylamino)-4-aminothiazol-5-yl)-7-hydroxy-4H-chromen-4-one] | 82.6 | 74.4 | 68.8 | 60.8 | 54.8 | 97.6 | 91.4 | 85.8 | 74.8 | 55.8 |
| 224 to 226 | 3.42 | Cc1cccc(C)c1Nc1nc(N)c(-c2cc(=O)c3ccc(O)cc3o2)s1 [Compound S1-M4, 2-(2-(2,6-dimethylphenylamino)-4-aminothiazol-5-yl)-7-hydroxy-4H-chromen-4-one] | 80.6 | 71.8 | 65.6 | 58.6 | 50.6 | 88.6 | 85.8 | 77.6 | 68.6 | 61.6 |
| 260 to 262 | 3.02 | Nc1nc(Nc2c(Cl)cccc2Cl)sc1-c1cc(=O)c2ccc(O)cc2o1 [Compound S1-M5, 2-(2-(2,6-dichlorophenylamino)-4-aminothiazol-5-yl)-7-hydroxy-4H-chromen-4-one] | 84.8 | 77.6 | 69.9 | 60.9 | 52.9 | 98.8 | 91.6 | 83.9 | 71.9 | 65.9 |
| 220 to 222 | 1.92 | COc1ccc(Nc2nc(N)c(-c3cc(=O)c4ccc(O)cc4o3)s2)cc1 [Compound S1-M6, 2-(2-(4-methoxyphenylamino)-4-aminothiazol-5-yl)-7-hydroxy-4H-chromen-4-one] | 48.7 | 35.2 | 25.8 | 19.9 | 12.9 | 53.1 | 45.1 | 36.7 | 27.9 | 19.4 |
| 210 to 212 | 2.11 | COc1ccccc1Nc1nc(N)c(-c2cc(=O)c3ccc(O)cc3o2)s1 [Compound S1-M7, 2-(2-(2-methoxyphenylamino)-4-aminothiazol-5-yl)-7-hydroxy-4H-chromen-4-one] | 85.1 | 75.9 | 65.8 | 57.8 | 45.8 | 96.1 | 94.9 | 84.8 | 74.8 | 66.8 |
| 218 to 220 | 3.32 | Nc1nc(Nc2ccccc2)sc1-c1cc(=O)c2ccc(O)cc2o1 [Compound S1-M8, 2-(4-amino-2-(phenylamino)thiazol-5-yl)-7-hydroxy-4H-chromen-4-one] | 88.3 | 76.1 | 68 | 59 | 51.4 | 93.3 | 87.1 | 75 | 64 | 54 |
| 200 to 202 | 1.9 | Cc1ccc(Nc2nc(N)c(-c3cc(=O)c4ccccc4o3)s2)cc1 [Compound S1-M9, 2-(2-(p-tolylamino)-4-aminothiazol-5-yl)-4H-chromen-4-one] | 87 | 78.8 | 70.3 | 62.3 | 55.6 | 100 | 91.8 | 87.3 | 77.3 | 67.3 |
| 280 to 282 | 3.99 | COc1ccc2oc(-c3sc(Nc4ccc(C)cc4)nc3N)cc(=O)c2c1 [Compound S1-M10, 2-(2-(p-tolylamino)-4-aminothiazol-5-yl)-6-methoxy-4H-chromen-4-one] | 87.9 | 78 | 69.4 | 59.4 | 50.4 | 96.9 | 93 | 86.4 | 76.4 | 66.4 |
| 288 to 290 | 2.11 | COc1ccc2oc(-c3sc(Nc4ccccc4C)nc3N)cc(=O)c2c1 [Compound S1-M11, 2-(2-(o-tolylamino)-4-aminothiazol-5-yl)-6-methoxy-4H-chromen-4-one] | 83.8 | 75.7 | 67.2 | 58.8 | 49.8 | 99.8 | 93.7 | 84.8 | 72.8 | 62.8 |
| 228 to 230 | 2.7 | COc1ccc2oc(-c3sc(Nc4c(C)cccc4C)nc3N)cc(=O)c2c1 [Compound S1-M12, 2-(2-(2,6-dimethylphenylamino)-4-aminothiazol-5-yl)-6-methoxy-4H-chromen-4-one] | 85.1 | 73.4 | 65.9 | 56.9 | 45.8 | 92.1 | 95.4 | 86.9 | 78.9 | 66.9 |
| 260 to 262 | 2.18 | COc1ccc2oc(-c3sc(Nc4c(Cl)cccc4Cl)nc3N)cc(=O)c2c1 [Compound S1-M13, 2-(2-(2,6-dichlorophenylamino)-4-aminothiazol-5-yl)-6-methoxy-4H-chromen-4-one] | 90.4 | 81.9 | 72.4 | 64.6 | 55.9 | 95.4 | 90.9 | 82.6 | 72.6 | 62.6 |
| 220 to 222 | 2.6 | COc1ccc(Nc2nc(N)c(-c3cc(=O)c4ccc(OC)cc4o3)s2)cc1 [Compound S1-M14, 2-(2-(4-methoxyphenylamino)-4-aminothiazol-5-yl)-7-methoxy-4H-chromen-4-one] | 91 | 80.1 | 70.6 | 61.3 | 51.1 | 98 | 89.1 | 81.1 | 71.1 | 63.1 |
| 210 to 212 | 2.5 | COc1ccc2c(=O)cc(-c3sc(Nc4ccccc4OC)nc3N)oc2c1 [Compound S1-M15, 2-(2-(2-methoxyphenylamino)-4-aminothiazol-5-yl)-7-methoxy-4H-chromen-4-one] | 89.1 | 77.9 | 68.7 | 60.7 | 50.3 | 96.1 | 92.7 | 85.3 | 75.3 | 68.3 |
| – | – | COc1cc2ncnc(Nc3ccc(F)c(Cl)c3)c2cc1OCCCN1CCOCC1 [Gefitinib, gefitinib, reference compound] | 55.2 | 43.7 | 35.3 | 29.3 | 20.3 | 55.2 | 43.7 | 35.3 | 29.3 | 20.3 |
